Data from patent publication US4925869A, “Therapeutic agents” (Imperial Chemical Industries PLC, priority 1986, dated 1990).

How the values were obtained:
Format in all cases: cell-based
human platelets = assay: inhibition of arachidonic acid induced aggregation of human platelets
Text: The beneficial effects of combining one of the novel TXA2 antagonists of formula I defined hereinabove with a TXA2 synthetase inhibitor may be illustrated in vitro, for example by evaluating their effects in inhibiting arachidonic acid induced aggregation of human platelets, using standard procedures well known in the art.

[1] = target: T1, human, citrated platelet rich plasma (Homo sapiens, UniProt P21731); assay: blood platelet aggregation test, U46619-induced aggregation of human citrated platelet rich plasma (test (b)); settings: U46619, procedure (b)
T1 construct: aggregating human, citrated platelet rich plasma; from tissue; host or cells: human citrated platelet rich plasma (native platelets)
T1 sequence (P21731 1-343): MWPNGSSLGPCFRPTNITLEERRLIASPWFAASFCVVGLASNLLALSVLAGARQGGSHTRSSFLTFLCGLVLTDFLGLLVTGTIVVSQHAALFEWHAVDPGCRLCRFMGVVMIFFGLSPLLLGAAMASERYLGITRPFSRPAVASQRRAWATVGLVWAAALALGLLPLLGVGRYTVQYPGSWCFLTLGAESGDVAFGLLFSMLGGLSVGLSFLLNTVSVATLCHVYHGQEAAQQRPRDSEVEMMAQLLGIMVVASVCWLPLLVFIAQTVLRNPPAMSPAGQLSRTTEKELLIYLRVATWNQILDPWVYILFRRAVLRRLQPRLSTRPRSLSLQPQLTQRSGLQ
Text: (b) a blood platelet aggregation test based on that described by Born (Nature, 1962, 194, 927-929) and involving:
(i) aggregating human, citrated platelet rich plasma by addition of the TXA2 mimetic agent U46619 so that a dose-response curve is generated:
(ii) generating a dose-response curve for U46619 stimulated platelet aggregation in the presence of increasing amounts of test compound (generally in the range, 10^-5 M to 10^-10 M); and
(iii) calculating a KB value indicating potency of TXA2 antagonism for the test compound, averaged over several concentrations, from the calculated 50% response value for U46619 aggregation in the presence and absence of test compound: and (c) a bronchoconstriction test involving measuring the inhibition by test compound of the bronchoconstriction induced in the Konzett-Rossler, anaesthetised guinea-pig model (as modified by Collier and James, Brit. J. Pharmacol., 1967, 30, 283-307) by intravenous administration of the TXA2 mimetic agent, U46619 and involving: […]

rat aortal strip = target: T2, rat aortal strip (Rattus norvegicus, UniProt P34978); assay: rat aortal strip model, antagonism of the TXA2 mimetic U46619 (test (a)); settings: agonist U46619, procedure (a), read-out: pA2 (converted)
T2 construct: the rat aortal strip model developed by Kennedy et alia; from tissue; host or cells: rat aorta strip
T2 sequence (P34978 1-341): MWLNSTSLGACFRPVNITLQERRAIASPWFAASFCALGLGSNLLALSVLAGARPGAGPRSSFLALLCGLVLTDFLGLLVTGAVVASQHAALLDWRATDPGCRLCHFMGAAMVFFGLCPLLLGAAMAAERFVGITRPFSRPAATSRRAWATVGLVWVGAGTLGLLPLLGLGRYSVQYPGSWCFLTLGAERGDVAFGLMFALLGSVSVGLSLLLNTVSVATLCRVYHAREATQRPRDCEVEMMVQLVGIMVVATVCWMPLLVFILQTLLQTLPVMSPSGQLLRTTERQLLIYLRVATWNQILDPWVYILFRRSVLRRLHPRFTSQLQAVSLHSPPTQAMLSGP
Text: As stated earlier, the compounds of formula I are antagonists of one or more of the actions of TXA2, for example certain of its actions on blood platelets, the vasculature and/or the lung.
(a) The rabbit aortal strip model devised by Piper and Vane (Nature, 1969, 223, 29-35) or the rat aortal strip model developed by Kennedy et alia (Prostaglandins, 1982, 24, 667-689), using as agonist the TXA2 mimetic agent known as U46619 (described by R. L. Jones et alia. in "Chemistry, Biochemistry and Pharmacological Activity of Prostanoids" edited by S. M. Roberts and F. Scheinmann, at page 211, Pergamon Press, 1979);

| Structure (SMILES) | inhibition of arachidonic acid induced aggregation of human platelets (human platelets; tested alone at 10^-4 M) | inhibition of arachidonic acid induced aggregation of human platelets (human platelets; tested alone at 10^-9 M) | Kb [1] | Kb (rat aortal strip) |
| --- | --- | --- | --- | --- |
| O=C(O)c1ccc(OCCn2ccnc2)cc1 [dazoxiben, reference compound] | no significant inhibition | – | – | – |
| CC(C)(Oc1ccccc1)[C@H]1OC[C@@H](C/C=C\CCC(=O)O)[C@@H](c2ccccc2O)O1 (relative stereo) [Example 6, 4(Z) 6 ([2,4,5 cis]4-o-hydroxyphenyl-2-[1-methyl-1-phenoxyethyl] -1,3-dioxan-5-yl)hexenoic acid] | – | no significant inhibition | 17.5 nM | 0.195 nM |
